Results as given in patent EP0292170A2, “Enzyme immunoassay” (Bayer Corporation, priority 1987, dated 1988).

System: antibody to phenytoin
Test: Immunoreactivity: conjugate activity in the phosphorylase kinase reaction mixture in the presence of monoclonal antibody to phenytoin
Format: biochemical
Settings: same reaction mixture, antibody added

For `Nc1ncnc2c1ncn2[C@@H]1O[C@H](COP(=O)(O)OP(=O)(O)OP(=O)(O)O)[C@@H](O)[C@H]1O` [ATP, adenosine triphosphate], the “inhibition of activity by antibody” value was “No inhibition”.
